± gives the expanded uncertainty stated by the source.
Assays:
[1] = molar heat capacity at constant pressure; conditions: 101.33 kPa, Liquid, Small sample (50 mg) DSC
[2] = 101.33 kPa, Liquid; for viscosity: Capillary tube (Ostwald / Ubbelohde) method; for mass density: Vibrating tube method
[3] = refractive index (Na D-line) (dimensionless); conditions: 101.33 kPa, Liquid, Standard Abbe refractometry

molar heat capacity at constant pressure ([1]; 288.15 K) [J/K/mol] | molar heat capacity at constant pressure ([1]; 293.15 K) [J/K/mol] | molar heat capacity at constant pressure ([1]; 298.15 K) [J/K/mol] | molar heat capacity at constant pressure ([1]; 303.15 K) [J/K/mol] | molar heat capacity at constant pressure ([1]; 308.15 K) [J/K/mol] | molar heat capacity at constant pressure ([1]; 313.15 K) [J/K/mol] | molar heat capacity at constant pressure ([1]; 318.15 K) [J/K/mol] | molar heat capacity at constant pressure ([1]; 323.15 K) [J/K/mol] | viscosity ([2]; 293.15 K) [mPa·s] | mass density ([2]; 293.15 K) [kg/m3] | viscosity ([2]; 313.15 K) [mPa·s] | mass density ([2]; 313.15 K) [kg/m3] | refractive index ([3]; 293.15 K) | refractive index ([3]; 313.15 K) | SMILES
210.2 ± 4.2 | 211.49 ± 4.2 | 212.46 ± 4.2 | 213.83 ± 4.3 | 214.89 ± 4.3 | 215.8 ± 4.3 | 218.55 ± 4.4 | 220.32 ± 4.4 | 0.817 ± 0.008 | 975.84 ± 0.3 | 0.623 ± 0.007 | 952.39 ± 0.3 | 1.3858 ± 0.0007 | 1.3764 ± 0.0007 | CCOC(=O)OCC [diethyl carbonate]
165.51 ± 3.3 | 166.07 ± 3.3 | 167.1 ± 3.3 | 168.48 ± 3.4 | 169.72 ± 3.4 | 170.83 ± 3.4 | 172.18 ± 3.4 | 173.68 ± 3.5 | 0.629 ± 0.006 | 1069.8 ± 0.37 | 0.494 ± 0.005 | 1043.25 ± 0.35 | 1.3689 ± 0.0006 | 1.3604 ± 0.0006 | COC(=O)OC [dimethyl carbonate]
166.28 ± 3.3 | 167.97 ± 3.4 | 169.48 ± 3.4 | 170.79 ± 3.4 | 172.22 ± 3.4 | 174.14 ± 3.5 | 175.87 ± 3.5 | 177.45 ± 3.5 | 2.778 ± 0.022 | 1204.66 ± 0.18 | 1.909 ± 0.017 | 1183.06 ± 0.17 | 1.4223 ± 0.0006 | 1.4149 ± 0.0006 | CC1COC(=O)O1 (configuration not stated) [4-methyl-1,3-dioxolan-2-one]
